Values joined by “and” are separate entries in the source; they are usually repeats but may differ in a detail not shown here. Equal values may be shown once. “Also recorded” adds a separate entry of the source.
What was measured:
[1] = tested on: acute promyelocytic leukemia (APL); settings: APL patients; ATRA alone; cited from earlier work
[2] = tested on: NU-DUL-1-RCHO cells; settings: 48 hours
Experimental: (§1) Further, we constructed LY8 and NU-DUL-1 cells resistant to chemotherapeutic drugs. Briefly, LY8-ORI and NU-DUL-1-ORI cells were treated with doxorubicin (Selleck Chemicals, Houston, Tex.) and vincristine (Selleck Chemicals, Houston, Tex.) at a clinical ratio of 50:1.4 by increasing the concentration. […] These cells were then treated with 2 μg/mL of 4-hydroperoxycyclophosphamide (4-HC) (Santa Cruz Biotechnology, Inc., Santa Cruz, Calif.) every 21 days for 3 cycles. The obtained CHO-resistant cells are referred to as LY8-CHO and NU-DUL-1-CHO, respectively. CHO-resistant cells were treated with doxorubicin, vincristine, and 4-HC every 22 days to maintain drug tolerance to CHO. […] To maintain RCHO resistance, LY8-RCHO cells and NU-DUL-1-RCHO cells were treated with 32 μg/mL of rituximab containing 20% (v/v) of NHS every 22 days, followed by treatment with doxorubicin, vincristine, and 4-HC. After 48 hours of treatment with doxorubicin, vincristine and 4-HC, drug resistance to CHO and RCHO was determined by a series of CCK-8 assays.
(§2) Cells were seeded in a 96-well plate at a density of 1×10^4/100 μL/well. Cells were pretreated with IPI-145, abemaciclib, AZD4547, PF-573228, R788, or saracatinib at increasing concentrations with or without CHO for 48 hours prior to performing CytoTox-Glo™ cytotoxicity assay. We performed cytotoxicity assay by using a CytoTox-Glo™ cytotoxicity assay kit (Promega Inc., Madison, Wis.) according to their instructions. Briefly, 50 μL of CytoTox-Glo™ cytotoxicity assay reagent was added to all wells, mixed by orbital shaking, and then incubated for 15 minutes at room temperature. Luminescence of experimental dead cells was detected with a Synergy HT microplate reader (BioTek, Biotek Winooski, Minn.), wherein 50 μL of lysate was added to all wells, mixed and incubated for 15 minutes at room temperature prior to detection of total luminescence. Cytotoxicity was calculated according to the following formula: Cytotoxicity (%)=Experimental dead cell luminescence/Total luminescence×100%.

[3] = tested on: SOX2 in tumor tissues grown from NU-DUL-1-RCHO-Luc cells; test: SOX2 immunohistochemical staining of tumor tissues from the transplantation model; assay type: in vivo, SCID mice; settings: tumors from NU-DUL-1-RCHO-Luc cells; compared with saline control
Description: Construction of a transplantation model: we transduced LY8-RCHO cells and NU-DUL-1-RCHO cells with lentiviruses overexpressing the firefly luciferase gene to generate stable cells expressing firefly luciferase, referred to as LY8-RCHO-Luc cells and NU-DUL-1-RCHO-Luc cells, respectively. 8-week-old female SCID mice were purchased from SLAC (Shanghai laboratory animal center). The LY8-RCHO-Luc cells and NU-DUL-1-RCHO-Luc cells were resuspended in PBS prior to intraperitoneal injection of 1.5×10^7 cells per mouse. After intraperitoneal injection of the LY8-RCHO-Luc cells, mice were randomized into 6 groups (7 mice in every group) and given saline, R-CHOP, duvelisib, abemaciclib, R-CHOP+duvelisib, and R-CHOP+abemaciclib, respectively. Mice inoculated with the NU-DUL-1-RCHO-Luc cells were randomly divided into 6 groups (7 mice in every group), and were given saline, R-CHOP, duvelisib, AZD4547, R-CHOP+duvelisib, and R-CHOP+AZD4547, respectively. […] Tumor growth was monitored by bioluminescence at day 50 and day 90 after inoculation. For in vivo luminescence imaging, D-luciferin (Promega, Madison, Wis.) was intraperitoneally injected into mice (150 mg/kg). […] Luminescence images were captured with an exposure time of 30 seconds and the signal intensity of the tumor was measured by using Bruker MI software. The survival time of each mouse was recorded. […]
Tumor tissues from patients or animal models were fixed with 4% formalin, embedded in paraffin and sectioned. […] Immunoreactivity was then detected by using a GTVision III immunohistochemical detection kit (GK500705; Gene Tech Inc., Shanghai, China) according to its instructions. Quantitative scoring of immunostaining for SOX2, p-AKT, CDK6, FGFR1 and FGFR2 was performed on three independent sections under the microscope, according to the formula: score=3 (strong positive)×percentage+2 (medium positive)×percentage+1 (weak positive)×percentage+0 (negative)×percentage.

[4] = tested on: NU-DUL-1-RCHO cells; test: Aldefluor analysis (ALDH1+ cells); assay type: cell-based, human
Experimental: (§3) ALDH1 is a selectable marker for a variety of normal and cancer stem cells, including hematopoietic stem cells. Therefore, we assessed the number of cancer stem cells in hematopoietic malignancies by detecting ALDH1 positive cells. As previously described, we used an ALDEFLUOR™ kit (StemCell Technologies, Vancouver, BC, CA) to detect populations with high ALDH1 activity. Briefly, 1×10^6 cells were suspended in 1 mL of assay buffer containing 1 μM of BAAA, a substrate of […]. Suspended cells were then equally divided into two samples, one as a negative control and the other as a test sample. To form the negative control, […] of DEAB, a specific ALDH inhibitor, was added to one equally-divided sample. Cells were then incubated at 37° C. for 30 minutes prior to flow cytometry analysis.

[5] = tested on: NU-DUL-1-RCHO-Luc cells; test: Transplantation model, bioluminescence tumor growth and survival; assay type: in vivo; settings: SCID mice bearing NU-DUL-1-RCHO-Luc cells
Description: (§4) Construction of a transplantation model: we transduced LY8-RCHO cells and NU-DUL-1-RCHO cells with lentiviruses overexpressing the firefly luciferase gene to generate stable cells expressing firefly luciferase, referred to as LY8-RCHO-Luc cells and NU-DUL-1-RCHO-Luc cells, respectively. 8-week-old female SCID mice were purchased from SLAC (Shanghai laboratory animal center). The LY8-RCHO-Luc cells and NU-DUL-1-RCHO-Luc cells were resuspended in PBS prior to intraperitoneal injection of 1.5×10^7 cells per mouse. After intraperitoneal injection of the LY8-RCHO-Luc cells, mice were randomized into 6 groups (7 mice in every group) and given saline, R-CHOP, duvelisib, abemaciclib, R-CHOP+duvelisib, and R-CHOP+abemaciclib, respectively. Mice inoculated with the NU-DUL-1-RCHO-Luc cells were randomly divided into 6 groups (7 mice in every group), and were given saline, R-CHOP, duvelisib, AZD4547, R-CHOP+duvelisib, and R-CHOP+AZD4547, respectively. The drug dosing method based on one course of clinical use is shown in Table 1; the R-CHOP regimen was clinically used to treat DLBCL, while duvelisib, abemaciclib, and AZD4547 were tested in clinical trials (associated NCT numbers are NCT02576275, NCT01739309, and […], respectively). Tumor growth was monitored by bioluminescence at day 50 and day 90 after inoculation. For in vivo luminescence imaging, D-luciferin (Promega, Madison, Wis.) was intraperitoneally injected into mice (150 mg/kg). After 10 minutes, the mice were anesthetized by intraperitoneal injection of pentobarbital (50 mg/kg) and then their bioluminescence intensity was examined by using an In Vivo MS FX PRO system (Bruker Corporation, Billerica, Mass.). Luminescence images were captured with an exposure time of 30 seconds and the signal intensity of the tumor was measured by using Bruker MI software. The survival time of each mouse was recorded. Surviving mice were euthanized and dissected 120 days after inoculation and no intraperitoneal tumors were found. Tumor tissue was collected from moribund mice and fixed with 4% formalin. All animal experiments were performed in strict accordance with the experiment protocol approved by the animal ethics committee of Shanghai school of medicine of Fudan university.

[6] = tested on: NU-DUL-1-RCHO cells; test: EdU cell proliferation assay; assay type: cell-based, human; settings: 1 μM, time point (48 or 120 hours) not given
Experimental: (§5) RCHO-resistant DLBCL cells were pretreated with duvelisib, abemaciclib, or AZD4547 at a concentration of 1 μM for 48 or 120 hours prior to EdU assay. For 120 hours of the study, the medium was replaced with a fresh medium containing 1 μM of inhibitor at 48 hours. EdU cell proliferation assay was performed by using a cell-light EdU Apollo643 in vitro flow cytometry kit (RiboBio Inc., Guangzhou, China) according to its instructions. Next, we assayed EdU staining positive cells on a Cytomics FC500 MPL flow cytometer (Beckman Coulter, Brea, Calif.).

[7] = tested on: AKT phosphorylation, SOX2, FGFR1/2 and CSC-associated molecules in NU-DUL-1-RCHO cells; test: Immunoblot analysis; assay type: cell-based, human
[8] = tested on: NU-DUL-1-RCHO cells; test: CDC assay (rituximab-mediated complement-dependent cytotoxicity); assay type: cell-based, human; settings: pre-treated with inhibitor 24 hours, then rituximab and 20% NHS 2 hours
Experimental: (§6) We constructed LY8 cells and NU-DUL-1 cells that are resistant to rituximab-mediated complement-dependent cytotoxicity (CDC). Briefly, original LY8 (LY8-ORI) cells and original NU-DUL-1 (NU-DUL-1-ORI) cells were treated with rituximab containing 20% (v/v) of NHS (Roche, Basel, Switzerland) with a concentration of gradually increasing from 4 μg/mL to 32 μg/mL to construct drug-resistant cells. […] Cytolysis induced by CDC was evaluated by detection of positive cells stained with propidium iodide (PI) through fluorescence activated cell sorting (FACS).

[9] = tested on: AKT phosphorylation, SOX2, CDK6 and CSC-associated molecules in LY8-RCHO cells; test: Immunoblot analysis; assay type: cell-based, human
[10] = tested on: LY8-RCHO cells; settings: 48 hours
Experimental: as §1, §2

[11] = tested on: LY8-RCHO cells; test: Aldefluor analysis (ALDH1+ cells); assay type: cell-based, human
Experimental: as §3

[12] = tested on: LY8-RCHO-Luc cells; test: Transplantation model, bioluminescence tumor growth and survival; assay type: in vivo; settings: SCID mice bearing LY8-RCHO-Luc cells
Description: as §4

[13] = tested on: LY8-RCHO cells; test: EdU cell proliferation assay; assay type: cell-based, human; settings: 1 μM
Experimental: as §5

[14] = tested on: LY8-RCHO cells; test: CDC assay (rituximab-mediated complement-dependent cytotoxicity); assay type: cell-based, human; settings: pre-treated with inhibitor 24 hours, then rituximab and 20% NHS 2 hours
Experimental: as §6

[15] = inhibitor alone at increasing concentrations
[16] = inhibitor at increasing concentrations with CHO
[17] = inhibitor combined with R-CHOP, dosing per Table 1
[18] = inhibitor combined with R-CHOP, experiment ended at day 120

## CC1=C(/C=C/C(C)=C/C=C/C(C)=C/C(=O)O)C(C)(C)CCC1 [ATRA, all-trans retinoic acid]
[1]
  complete remission rate: about 85%

## COc1cc(CCc2cc(NC(=O)c3ccc(N4C[C@@H](C)N[C@@H](C)C4)cc3)n[nH]2)cc(OC)c1 [AZD4547]
[2]; [15]
  cytotoxicity (induction of cell death), inhibitor used alone: negligible effect on induction of cell death; also recorded: only negligible cytotoxicity on drug-resistant cells
[2]; [16]
  reversal of resistance to CHO (cytotoxicity of CHO), inhibitor co-treated with CHO: restored sensitivity of RCHO-resistant cells to CHO; also recorded: significantly enhanced cytotoxicity of CHO
[3]
  SOX2 expression level in tumor tissue (IHC): significantly reduced the expression levels of SOX2 compared with a saline control
[4]
  proportion of ALDH1+ cells (CSCs): significantly reduced ALDH1+ subpopulations in NU-DUL-1-RCHO cells, but to a greatly reduced extent compared with duvelisib
[5]; [17]
  tumor growth (total photon flux): completely inhibit tumor growth
[5]; [18]
  survival time: prolong the survival time to the end of the experiment at day 120
[5]; regimen or inhibitor used alone, dosing per Table 1
  survival time: significantly prolonged the survival time
[6]
  cell proliferation (EdU incorporation): promoted proliferation of NU-DUL-1-RCHO cells due to involvement in inhibition of PI3K/AKT signaling, but to a lesser extent than PI3K inhibition
[7]
  levels of CSC-associated molecules (OCT4, NANOG, KLF4, c-MYC, CD34, CD133): also reduced their levels but to a greatly reduced extent compared with duvelisib
[8]
  effect on resistance to R-mediated CDC: exacerbates resistance to R-mediated CDC

## CCN1CCN(Cc2ccc(Nc3ncc(F)c(-c4cc(F)c5nc(C)n(C(C)C)c5c4)n3)nc2)CC1 [abemaciclib]
[9]
  levels of CSC-associated molecules (OCT4, NANOG, KLF4, c-MYC, CD34, CD133): had no effect on its levels but resulted in a reduction in C-MYC
[10]; [15]
  cytotoxicity (induction of cell death), inhibitor used alone: negligible effect on induction of cell death; also recorded: only negligible cytotoxicity on drug-resistant cells
[10]; [16]
  reversal of resistance to CHO (cytotoxicity of CHO), inhibitor co-treated with CHO: restored sensitivity of RCHO-resistant cells to CHO; also recorded: significantly enhanced cytotoxicity of CHO
[11]
  proportion of ALDH1+ cells (CSCs): had no effect on ALDH1+ subpopulations in LY8-RCHO cells
[12]; inhibitor combined with R-CHOP, 7 mice per group
  day of death of the two mice that died: 62 days and 78 days
[12]; [17]
  tumor growth (total photon flux): significantly inhibited tumor growth
[12]; [18]
  survival: prolonged the survival rate compared with R-CHOP or an inhibitor alone
[12]; regimen or inhibitor used alone, vs saline, dosing per Table 1
  survival: neither duvelisib nor abemaciclib alone inhibited tumor growth or prolonged the survival rate
[12]; regimen or inhibitor used alone, vs saline, dosing per Table 1, day 50 and 90
  tumor growth (total photon flux): neither duvelisib nor abemaciclib alone inhibited tumor growth or prolonged the survival rate
[13]; 48 hours
  cell proliferation (EdU incorporation): prevented growth of LY8-RCHO cells at both 48 hours and 120 hours
[13]; 120 hours
  cell proliferation (EdU incorporation): prevented growth of LY8-RCHO cells at both 48 hours and 120 hours
[14]
  effect on resistance to R-mediated CDC: failed to reverse resistance to R-mediated CDC
